Measured values taken from patent publication US11180504B2 (ORCHID PHARMA LTD., priority 2016, dated 2021).
Converted amounts (≈) assume the structure as drawn.

Tests used:
[1] = system: extended spectrum β lactamase (ESBL) SHV18 producing Klebsiella pneumoniae; test: MIC by broth micro-dilution (CLSI), ESBL SHV18 producing K. pneumoniae; assay type: cell-based; settings: Klebsiella pneumoniae, ATCC700603, 22 h, ESBL +ve (SHV-18) K. pneumoniae ATCC700603; read-out: MIC
[2] = system: carbapenem sensitive Pseudomonas aeruginosa; test: MIC by broth micro-dilution (CLSI), carbapenem sensitive P. aeruginosa; assay type: cell-based; settings: Pseudomonas aeruginosa, ATCC27853, Meropenem susceptible P. aeruginosa ATCC27853; read-out: MIC
[3] = system: methicillin-sensitive Staphylococcus aureus; test: MIC by broth micro-dilution (CLSI), methicillin-sensitive S. aureus; assay type: cell-based; settings: Staphylococcus aureus, ATCC 29213 / MSSA, MSSA S. aureus ATCC29213; read-out: MIC
[4] = system: carbapenemase producing K. pneumoniae; test: MIC by broth micro-dilution (CLSI), carbapenemase producing K. pneumoniae; assay type: cell-based, Klebsiella pneumoniae; settings: Klebsiella pneumoniae, ATCCBAA1705, KPC-2 K. pneumoniae ATCC BAA-1705; read-out: MIC
[5] = system: carbapenem sensitive Escherichia coli; test: MIC by broth micro-dilution (CLSI), carbapenem sensitive E. coli; assay type: cell-based; settings: Escherichia coli, ATCC25922, ESBL −ve E. coli ATCC25922; read-out: MIC

| SMILES | MIC [1] [µg/mL] | MIC [2] [µg/mL] | MIC [3] [µg/mL] | MIC [4] [µg/mL] | MIC [5] [µg/mL] |
| --- | --- | --- | --- | --- | --- |
| C[C@@H](NS(=O)(=O)C(F)(F)F)[C@H]1C(=O)N2C(C(=O)O)=C(S[C@@H]3CN[C@H](C(=O)N4CCOCC4)C3)[C@H](C)[C@H]12 [Example 29] | 8 (≈ 14.4 µM) | 128 (≈ 230 µM) | 4 (≈ 7.19 µM) | > 128 | 1 (≈ 1.8 µM) |
| C[C@@H](NS(=O)(=O)C(F)(F)F)[C@H]1C(=O)N2C(C(=O)O)=C(S[C@@H]3CN[C@H](C(=O)N4CCC(O)CC4)C3)[C@H](C)[C@H]12 [Example 30] | 8 (≈ 14 µM) | 128 (≈ 224 µM) | 2 (≈ 3.51 µM) | 8 (≈ 14 µM) | 1 (≈ 1.75 µM) |
| CC(C)C[C@H](N)C(=O)N[C@H](C)[C@H]1C(=O)N2C(C(=O)O)=C(S[C@@H]3CN[C@H](C(=O)N(C)C)C3)[C@H](C)[C@H]12 [Example 31] | 16 (≈ 32.3 µM) | > 128 | 16 (≈ 32.3 µM) | 4 (≈ 8.07 µM) | 4 (≈ 8.07 µM) |
| C[C@@H](NC(=O)C(F)F)[C@H]1C(=O)N2C(C(=O)O)=C(S[C@@H]3CN[C@H](C(=O)N(C)C)C3)[C@H](C)[C@H]12 [Example 32] | 1 (≈ 2.17 µM) | 32 (≈ 69.5 µM) | 1 (≈ 2.17 µM) | 1 (≈ 2.17 µM) | 0.5 (≈ 1.09 µM) |
| C[C@@H](NS(=O)(=O)c1cccs1)[C@H]1C(=O)N2C(C(=O)O)=C(S[C@@H]3CN[C@H](C(=O)N(C)C)C3)[C@H](C)[C@@H]12 [Example 33] | 32 (≈ 60.5 µM) | > 128 | 4 (≈ 7.57 µM) | 16 (≈ 30.3 µM) | 4 (≈ 7.57 µM) |
| C[C@@H](NS(=O)(=O)C(F)(F)F)[C@H]1C(=O)N2C(C(=O)O)=C(S[C@@H]3CN[C@H](C(=O)N4CC[C@@H](O)C4)C3)[C@H](C)[C@H]12 [Example 34] | 8 (≈ 14.4 µM) | 128 (≈ 230 µM) | 4 (≈ 7.19 µM) | 8 (≈ 14.4 µM) | 1 (≈ 1.8 µM) |
| C[C@@H](NC(=O)C(F)F)[C@H]1C(=O)N2C(C(=O)O)=C(S[C@@H]3CN[C@H](C(=O)N4CCSCC4)C3)[C@H](C)[C@H]12 [Example 35] | 4 (≈ 7.71 µM) | > 128 | 1 (≈ 1.93 µM) | 2 to 4 (≈ 3.86 to 7.71 µM) | 1 (≈ 1.93 µM) |
| COC(=S)N[C@H](C)[C@H]1C(=O)N2C(C(=O)O)=C(S[C@@H]3CN[C@H](C(=O)N(C)C)C3)[C@H](C)[C@H]12 [Example 36] | 16 (≈ 35 µM) | 128 (≈ 280 µM) | 1 (≈ 2.19 µM) | 16 (≈ 35 µM) | 2 (≈ 4.38 µM) |
| C[C@@H](NC(=O)C(F)F)[C@H]1C(=O)N2C(C(=O)O)=C(S[C@@H]3CN[C@H](C(=O)N4CCC(C(=O)O)CC4)C3)[C@H](C)[C@H]12 [Example 37] | 1 (≈ 1.84 µM) | > 128 | 16 (≈ 29.4 µM) | 16 (≈ 29.4 µM) | 1 (≈ 1.84 µM) |
| C[C@@H](NC(=O)C(F)F)[C@H]1C(=O)N2C(C(=O)O)=C(S[C@@H]3CN[C@H](CNS(N)(=O)=O)C3)[C@H](C)[C@H]12 [Example 38] | 1 (≈ 2.01 µM) | 32 to 64 (≈ 64.3 to 129 µM) | 0.25 (≈ 0.502 µM) | 2 to 4 (≈ 4.02 to 8.04 µM) | 1 (≈ 2.01 µM) |
| C[C@@H](NS(C)(=O)=O)[C@H]1C(=O)N2C(C(=O)O)=C(S[C@@H]3CN[C@H](C(=O)N4CC[N+](C)(CC(N)=O)CC4)C3)[C@H](C)[C@H]12 [Example 39] | 16 | 16 | 16 | 16 | 4 |
| C[C@@H](NC(=O)CC(F)(F)F)[C@H]1C(=O)N2C(C(=O)O)=C(S[C@@H]3CN[C@H](C(=O)N(C)C)C3)[C@H](C)[C@H]12 [Example 40] | 8 (≈ 16.2 µM) | > 128 | 4 (≈ 8.12 µM) | 4 to 8 (≈ 8.12 to 16.2 µM) | 1 (≈ 2.03 µM) |
| C[C@@H](NC(=O)OCC(F)F)[C@H]1C(=O)N2C(C(=O)O)=C(S[C@@H]3CN[C@H](C(=O)N(C)C)C3)[C@H](C)[C@H]12 [Example 41] | 16 (≈ 32.6 µM) | > 128 | 2 (≈ 4.08 µM) | 16 (≈ 32.6 µM) | 1 (≈ 2.04 µM) |
| C[C@@H](NC(=O)C(F)F)[C@H]1C(=O)N2C(C(=O)O)=C(S[C@@H]3CN[C@H](C(=O)N4CC[S+]([O-])CC4)C3)[C@H](C)[C@H]12 [Example 42] | 1 (≈ 1.87 µM) | 128 (≈ 239 µM) | 2 (≈ 3.74 µM) | 8 (≈ 15 µM) | 1 (≈ 1.87 µM) |
| C[C@@H](NC(=O)C(F)F)[C@H]1C(=O)N2C(C(=O)O)=C(S[C@@H]3CN[C@H](C(=O)N4CCN(C)CC4)C3)[C@H](C)[C@H]12 [Example 43] | 4 (≈ 7.76 µM) | 64 (≈ 124 µM) | 2 (≈ 3.88 µM) | 8 (≈ 15.5 µM) | 1 (≈ 1.94 µM) |
| C[C@@H](NC(=O)CN)[C@H]1C(=O)N2C(C(=O)O)=C(S[C@@H]3CN[C@H](C(=O)N(C)C)C3)[C@H](C)[C@H]12 [Example 44] | 4 (≈ 9.1 µM) | 16 (≈ 36.4 µM) | 32 (≈ 72.8 µM) | 8 (≈ 18.2 µM) | 4 (≈ 9.1 µM) |
